Reference: US20240269139A1, “COMPOUNDS FOR TARGETED PROTEIN DEGRADATION OF KINASES” (DANA-FARBER CANCER INSTITUTE, INC., priority 2020, published 2024)
Read-outs that look alike come from different tables or passages of the source.

Legend:
Format in all cases: cell-based
[1] = target: protein kinases (human kinome) (Homo sapiens, UniProt P53671); settings: experiment wp045; for logFC LIMK2: LIMK2 (P53671), down; for logFC of LIMK2: LIMK2 P53671
[2] = target: protein kinases (human kinome) (Homo sapiens, UniProt P11802); settings: experiment wp045
[3] = target: protein kinases (human kinome) (Homo sapiens, UniProt P16591)
[4] = system: protein kinases (human kinome); settings: for kinases the bifunctional compound degrades: as stated for the structure in the embodiments; for Kinase hits: kinases significantly downregulated vs DMSO (fold change cutoff −1.25, P-value<0.01), ≤8 h, 0.1-5 μM degrader, 7 cell lines; for Total no. kinase hits: number of degraded kinases per library compound
[5] = target: protein kinases (human kinome) (Homo sapiens, UniProt Q2M2I8); settings: experiment wp045
Chain of protein kinases (human kinome) (Homo sapiens, UniProt Q2M2I8) (Q2M2I8 whole entry): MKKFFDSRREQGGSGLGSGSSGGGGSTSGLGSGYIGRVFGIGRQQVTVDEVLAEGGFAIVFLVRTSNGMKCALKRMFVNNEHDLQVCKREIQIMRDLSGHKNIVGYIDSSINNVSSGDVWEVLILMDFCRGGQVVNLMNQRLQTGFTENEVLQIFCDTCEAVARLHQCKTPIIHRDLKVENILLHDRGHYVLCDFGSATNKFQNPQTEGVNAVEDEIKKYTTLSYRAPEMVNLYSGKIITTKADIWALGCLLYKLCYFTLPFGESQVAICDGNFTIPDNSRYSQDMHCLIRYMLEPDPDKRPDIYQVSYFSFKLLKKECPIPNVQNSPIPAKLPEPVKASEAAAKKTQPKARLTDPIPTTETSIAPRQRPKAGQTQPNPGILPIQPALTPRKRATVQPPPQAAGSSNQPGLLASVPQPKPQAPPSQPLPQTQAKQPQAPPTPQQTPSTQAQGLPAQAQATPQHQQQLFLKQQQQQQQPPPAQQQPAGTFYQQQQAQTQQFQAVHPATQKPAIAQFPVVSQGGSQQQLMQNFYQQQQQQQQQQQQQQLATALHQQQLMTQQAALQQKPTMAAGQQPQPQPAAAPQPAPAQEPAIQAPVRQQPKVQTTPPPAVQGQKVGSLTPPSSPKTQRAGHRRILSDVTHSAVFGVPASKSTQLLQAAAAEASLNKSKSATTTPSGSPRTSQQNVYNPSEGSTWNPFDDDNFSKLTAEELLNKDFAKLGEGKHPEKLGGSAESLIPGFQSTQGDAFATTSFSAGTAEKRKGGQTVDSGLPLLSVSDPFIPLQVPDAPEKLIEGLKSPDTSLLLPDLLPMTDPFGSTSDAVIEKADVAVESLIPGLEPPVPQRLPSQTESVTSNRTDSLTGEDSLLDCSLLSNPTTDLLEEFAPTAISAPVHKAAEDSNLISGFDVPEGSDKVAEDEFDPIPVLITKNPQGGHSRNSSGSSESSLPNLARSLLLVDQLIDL

Chain of protein kinases (human kinome) (Homo sapiens, UniProt P11802) (P11802 whole entry): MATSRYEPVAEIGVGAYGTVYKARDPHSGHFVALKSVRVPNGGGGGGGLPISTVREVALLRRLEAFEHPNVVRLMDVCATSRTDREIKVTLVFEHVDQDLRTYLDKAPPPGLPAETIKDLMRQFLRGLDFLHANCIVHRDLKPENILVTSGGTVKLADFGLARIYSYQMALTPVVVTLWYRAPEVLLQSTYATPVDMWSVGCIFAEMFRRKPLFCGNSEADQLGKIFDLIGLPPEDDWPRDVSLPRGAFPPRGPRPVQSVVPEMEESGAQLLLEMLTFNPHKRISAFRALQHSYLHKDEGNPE
Chain of protein kinases (human kinome) (Homo sapiens, UniProt P53671) (P53671 whole entry): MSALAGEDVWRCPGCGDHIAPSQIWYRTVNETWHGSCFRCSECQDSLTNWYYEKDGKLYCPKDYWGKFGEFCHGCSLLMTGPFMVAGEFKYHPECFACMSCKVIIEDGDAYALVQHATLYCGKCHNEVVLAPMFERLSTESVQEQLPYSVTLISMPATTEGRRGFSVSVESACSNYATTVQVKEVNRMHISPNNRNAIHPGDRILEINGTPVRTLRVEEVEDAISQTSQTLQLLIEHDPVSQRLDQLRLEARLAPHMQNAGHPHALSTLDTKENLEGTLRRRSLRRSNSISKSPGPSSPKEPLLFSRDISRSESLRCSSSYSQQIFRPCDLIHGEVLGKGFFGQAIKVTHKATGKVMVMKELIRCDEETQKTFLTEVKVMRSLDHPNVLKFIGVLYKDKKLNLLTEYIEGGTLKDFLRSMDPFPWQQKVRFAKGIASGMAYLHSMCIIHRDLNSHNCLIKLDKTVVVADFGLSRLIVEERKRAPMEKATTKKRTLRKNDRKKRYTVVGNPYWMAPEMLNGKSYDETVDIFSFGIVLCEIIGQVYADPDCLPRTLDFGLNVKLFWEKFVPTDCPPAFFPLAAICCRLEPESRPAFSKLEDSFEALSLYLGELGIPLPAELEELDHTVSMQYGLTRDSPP
Chain of protein kinases (human kinome) (Homo sapiens, UniProt P16591) (P16591 whole entry): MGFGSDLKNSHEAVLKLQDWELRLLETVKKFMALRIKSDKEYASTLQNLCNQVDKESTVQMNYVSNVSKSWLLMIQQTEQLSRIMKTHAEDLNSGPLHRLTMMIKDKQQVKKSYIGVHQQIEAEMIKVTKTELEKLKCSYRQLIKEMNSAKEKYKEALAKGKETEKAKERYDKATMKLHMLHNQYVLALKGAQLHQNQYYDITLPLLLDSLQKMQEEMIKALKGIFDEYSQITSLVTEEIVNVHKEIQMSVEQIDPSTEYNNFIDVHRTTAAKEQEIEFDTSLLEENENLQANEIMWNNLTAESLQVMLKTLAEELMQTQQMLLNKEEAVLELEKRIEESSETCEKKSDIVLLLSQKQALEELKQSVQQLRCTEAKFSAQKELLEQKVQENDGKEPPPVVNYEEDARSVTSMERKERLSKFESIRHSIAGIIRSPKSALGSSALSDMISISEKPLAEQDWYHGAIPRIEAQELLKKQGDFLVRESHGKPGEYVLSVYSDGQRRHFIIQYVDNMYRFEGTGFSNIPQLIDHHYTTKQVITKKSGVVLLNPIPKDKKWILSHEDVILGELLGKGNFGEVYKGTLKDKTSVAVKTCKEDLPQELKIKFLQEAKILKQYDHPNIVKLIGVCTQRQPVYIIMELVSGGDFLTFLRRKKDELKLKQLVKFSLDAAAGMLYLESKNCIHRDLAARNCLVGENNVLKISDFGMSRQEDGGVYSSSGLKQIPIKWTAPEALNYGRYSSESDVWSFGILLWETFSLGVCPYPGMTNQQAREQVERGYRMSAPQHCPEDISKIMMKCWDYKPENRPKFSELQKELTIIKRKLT

| Structure (SMILES) | logFC LIMK2 [1] | logFC of LIMK2 [1] | logFC CDK4 (P11802) [2] | logFC of FER (P16591-1) ([3]; Experiment wp045, down) | logFC of FER ([3]; FER P16591-1, experiment wp045) | logFC of SRC ([4]; Accession P12931-2, experiment wp045) | logFC MAP3K20 (Q9NYL2-2) ([4]; Experiment wp046) | logFC LCK ([4]; LCK, accession P06239-3, experiment wp045, direction of change down) | logFC ([4]; SRC (P12931-2) protein abundance, degrader vs DMSO, down) | logFC ([4]; TNK2 (Q07912-3), experiment wp045, direction down) | logFC TNK2 ([4]; TNK2 Q07912-3, experiment wp045) | kinases the bifunctional compound degrades [4] | logFC MAP3K20 (Q9NYL2-2) ([4]; experiment wp045) | logFC LCK (P06239-3) ([4]; experiment wp045, direction of change down) | Kinase hits [4] | Total no. kinase hits [4] | logFC ([4]; CAMKK1 (Q8N5S9-2), experiment wp045) | logFC of CAMKK1 (Q8N5S9-2) ([4]; Experiment wp045) | logFC AAK1 ([5]; AAK1 (Q2M218-1), down) | logFC AAK1 ([5]; AAK1, accession Q2M218-1, direction of change down) |
| --- | --- | --- | --- | --- | --- | --- | --- | --- | --- | --- | --- | --- | --- | --- | --- | --- | --- | --- | --- | --- |
| Cc1ccc(NC(=O)c2cccc(C(F)(F)F)c2)cc1N1Cc2cnc(Nc3ccc(N4CCN(CCCCCCOc5cccc6c5C(=O)N(C5CCC(=O)NC5=O)C6=O)CC4)nc3)nc2N(C)C1=O (centres unmarked) [DB0663] | −1.367 | −1.367 | −0.6823 | −0.9581 | −0.9581 | −0.4247 | −0.8012 | −0.5823 | −0.4247 | −0.9271 | −0.9271 | CDK4, BLK, FER, LIMK2, GAK, CSK, SIK2, LCK, PTK2B, SRC, ABL2, MAPK14,a MAPK9, MAP4K2, MKNK2, MAP3K20, and TNK2 | −0.8012 | −0.5823 | CDK4, BLK, FER, LIMK2, GAK, CSK, SIK2, LCK, PTK2B, SRC, ABL2, MAPK14.a MAPK9, MAP4K2, MKNK2, MAP3K20, TNK2 | 17 |  |  |  |  |
| CS(=O)(=O)Nc1cccc(-c2csc3cnc(Nc4ccc(N5CCN(CCOCCOCCOc6cccc7c6C(=O)N(C6CCC(=O)NC6=O)C7=O)CC5)cc4)nc23)c1 (centres unmarked) [RSS0628] | −0.7182 | −0.7182 | −1.422 |  |  |  |  |  |  |  |  | AAK1. AURKA, CAMKK1, CDK4, CDK6, LIMK2, NEK9, PTK2B, STK17A, STK17B, ULK1, ULK3, and WEE1 |  |  | AAK1, AURKA, CAMKK1, CDK4, CDK6, LIMK2, NEK9, PTK2B, STK17A, STK17B, ULK1, ULK3, WEE1 | 13 | −0.3412 | −0.3412 | −1.24 | −1.24 |
